Patent publication US20100216817A1, “Antitumoral Tetrahydro-Pyrimidines” (Pharma Mar SA, priority 2005, published 2010)
Like-named read-outs stand apart in the source and are kept apart here.

Assays:
[1] = tested on: LOVO-DOX; test: SRB colorimetric cell growth inhibition assay; settings: for GI50 / CC50: Homo sapiens, 48 h; for CC50: read-out: LC50; for TGI: LOVO-DOX, colon (MDR), 48 hours exposure
[2] = tested on: SK-MEL-28; test: SRB colorimetric cell growth inhibition assay; settings: for GI50 / CC50: Homo sapiens, SK-MEL-28, 48 h; for CC50: read-out: LC50; for TGI: SK-MEL-28, melanoma, 48 hours exposure
[3] = tested on: DU-145; test: SRB colorimetric cell growth inhibition assay; settings: for TGI: DU-145, prostate, 48 hours exposure; for GI50 / CC50: Homo sapiens, DU-145, 48 h; for CC50: read-out: LC50
[4] = tested on: SK-BR3; test: SRB colorimetric cell growth inhibition assay; settings: for GI50 / CC50: Homo sapiens, SK-BR-3, 48 h; for CC50: read-out: LC50; for TGI: SK-BR3, breast, 48 hours exposure
[5] = tested on: HT29; test: SRB colorimetric cell growth inhibition assay; settings: for TGI: HT29, colon, 48 hours exposure; for GI50 / CC50: Homo sapiens, HT-29, 48 h; for CC50: read-out: LC50
[6] = tested on: IGROV; test: SRB colorimetric cell growth inhibition assay; settings: for GI50 / CC50: Homo sapiens, 48 h; for CC50: read-out: LC50; for TGI: ovary, 48 hours exposure
[7] = tested on: LN-caP; test: SRB colorimetric cell growth inhibition assay
[8] = tested on: HELA; test: SRB colorimetric cell growth inhibition assay; settings: for TGI: HELA, cervix, 48 hours exposure; for GI50 / CC50: Homo sapiens, HeLa, 48 h; for CC50: read-out: LC50
[9] = tested on: IGROV-ET; test: SRB colorimetric cell growth inhibition assay; settings: for GI50 / CC50: Homo sapiens, 48 h; for CC50: read-out: LC50; for TGI: IGROV-ET, ovary, 48 hours exposure
[10] = tested on: LOVO; test: SRB colorimetric cell growth inhibition assay; settings: for GI50 / CC50: Homo sapiens, LoVo, 48 h; for CC50: read-out: LC50; for TGI: LOVO, colon, 48 hours exposure
[11] = tested on: PANC1; test: SRB colorimetric cell growth inhibition assay; settings: for GI50 / CC50: Homo sapiens, PANC-1, 48 h; for CC50: read-out: LC50; for TGI: PANC1, pancreas, 48 hours exposure
[12] = tested on: HELA-APL; test: SRB colorimetric cell growth inhibition assay; settings: for TGI: HELA-APL, cervix, Aplidine resistant, 48 hours exposure; for GI50 / CC50: Homo sapiens, 48 h; for CC50: read-out: LC50
[13] = tested on: A549; test: SRB colorimetric cell growth inhibition assay; settings: for TGI: A549, NSCL, 48 hours exposure; for GI50 / CC50: Homo sapiens, A549, 48 h; for CC50: read-out: LC50
[14] = tested on: Staphylococcus aureus; settings: cited from earlier work
[15] = tested on: Bacteroides fragilis; settings: Tetrahedron 1994, 50, 3415-3426; cited from earlier work
[16] = tested on: Streptococcus fecalis; settings: J. Org. Chem. 1992, 57, 3832-3835; cited from earlier work
[17] = tested on: Escherichia coli; settings: cited from earlier work
[18] = tested on: Pseudomonas aeruginosa; settings: cited from earlier work
[19] = tested on: Peptococcus assaccharolyticus; settings: Tetrahedron 1994, 50, 3415-3426; cited from earlier work
[20] = tested on: Clostridium perfringens; settings: Tetrahedron 1994, 50, 3415-3426; cited from earlier work
[21] = J. Org. Chem. 1992, 57, 3832-3835
[22] = Tetrahedron 1994, 50, 3415-3426

In the case of CCCCCCC#C/C=C\CCCCCCCC1=NCCCN1CCCCNC(=N)N [Compound A], the GI50 [1] is reported as 1780 nM, the CC50 [1] is reported as 13000 nM and the TGI [1] is reported as 5.14E−6 Molar. It also gave a GI50 [2] of 649 nM, a CC50 [2] of 7660 nM and a TGI [2] of 2.49E−6 Molar. The TGI [3] was 8.80E−7 Molar, the GI50 [3] was 424 nM and the CC50 [3] was 1830 nM. For the same molecule, the GI50 [4] was 789 nM, the CC50 [4] was 1810 nM and the TGI [4] was 1.20E−6 Molar. The TGI [5] was 2.98E−6 Molar, the GI50 [5] was 1010 nM and the CC50 [5] was 8420 nM. The GI50 [6] was 579 nM, the CC50 [6] was 5310 nM and the TGI [6] was 1.53E−6 Molar. It also gave a GI50 ([7]; Homo sapiens, LNCaP, 48 h) of 333 nM, a CC50 ([7]; Homo sapiens, LNCaP, 48 h, read-out: LC50) of 1370 nM and a TGI ([7]; LN-caP, prostate, 48 hours exposure) of 6.73E−7 Molar. For the same molecule, the TGI [8] was 2.42E−6 Molar, the GI50 [8] was 801 nM and the CC50 [8] was 1040 nM. It also gave a GI50 [9] of 463 nM, a CC50 [9] of 4420 nM and a TGI [9] of 1.26E−6 Molar. For the same molecule, the GI50 [10] was 475 nM, the CC50 [10] was 1410 nM and the TGI [10] was 8.17E−7 Molar. The GI50 [11] was 535 nM, the CC50 [11] was 2910 nM and the TGI [11] was 1.16E−6 Molar. It also gave a TGI [12] of 1.07E−6 Molar, a GI50 [12] of 540 nM and a CC50 [12] of 2110 nM. The TGI [13] was 3.61E−6 Molar, the GI50 [13] was 1220 nM and the CC50 [13] was 12500 nM.

For N=C(N)NCCCCN1CCCN=C1CCCCCCCC=O [Compound B], the GI50 [1] was > 9290 nM, the CC50 [1] was > 9290 nM and the TGI [1] was >9.29E−6 Molar. For the same molecule, the GI50 [2] was > 9290 nM, the CC50 [2] was > 9290 nM and the TGI [2] was >9.29E−6 Molar. For the same molecule, the TGI [3] was >9.29E−6 Molar, the GI50 [3] was > 9290 nM and the CC50 [3] was > 9290 nM. For the same molecule, the GI50 [4] was > 9290 nM, the CC50 [4] was > 9290 nM and the TGI [4] was >9.29E−6 Molar. For the same molecule, the TGI [5] was >9.29E−6 Molar, the GI50 [5] was > 9290 nM and the CC50 [5] was > 9290 nM. The GI50 [6] was > 9290 nM, the CC50 [6] was > 9290 nM and the TGI [6] was >9.29E−6 Molar. For the same molecule, the TGI [8] was >9.29E−6 Molar, the GI50 [8] was > 9290 nM and the CC50 [8] was > 9290 nM. For the same molecule, the GI50 [9] was > 9290 nM, the CC50 [9] was > 9290 nM and the TGI [9] was >9.29E−6 Molar. For the same molecule, the GI50 [10] was > 9290 nM, the CC50 [10] was > 9290 nM and the TGI [10] was >9.29E−6 Molar. The GI50 [11] was > 9290 nM, the CC50 [11] was > 9290 nM and the TGI [11] was >9.29E−6 Molar. For the same molecule, the TGI [12] was >9.29E−6 Molar, the GI50 [12] was > 9290 nM and the CC50 [12] was > 9290 nM. For the same molecule, the TGI [13] was >9.29E−6 Molar, the GI50 [13] was > 9290 nM and the CC50 [13] was > 9290 nM.

In the case of Phloeodictine A, the MIC [14, 21] is given as 1 µg/mL, the MIC [14, 22] is given as 3 µg/mL and the MIC [15] is given as 1 µg/mL. The MIC [16] was 5 µg/mL, the MIC [17, 21] was 1 µg/mL and the MIC [17, 22] was 3 µg/mL. The MIC [18, 21] was 10 µg/mL, the MIC [18, 22] was 30 µg/mL and the MIC [19] was 10 µg/mL. For the same molecule, the MIC [20] was 30 µg/mL.

For Phloeodictine B, the MIC [14, 21] is listed as 3 µg/mL, the MIC [14, 22] is listed as 30 µg/mL and the MIC [15] is listed as > 30 µg/mL. The MIC [16] was > 15 µg/mL, the MIC [17, 21] was 30 µg/mL and the MIC [17, 22] was 30 µg/mL. The MIC [18, 21] was > 30 µg/mL, the MIC [19] was > 30 µg/mL and the MIC [20] was > 30 µg/mL.
